Molecules are shown by their SMILES. Several values for one entry are separate records, joined by “and”; a condition that tells them apart may be missing. Equal values may be shown once.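 Five compound concentrations were applied to cells in 96-well plates for 48 hours; endpoints were derived by simple linear interpolation of the resulting dose-response curve. GI50 marks 50% less growth. TGI marks complete inhibition of growth.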 Where only a bound is given, the exact number is not on record here.

Test systems include UO-31 renal; MALME-3M melanoma; HOP-92 NSCLC; CCRF-CEM leukemia; HL-60(TB) leukemia; PC-3 prostate; COLO 205 colon; MOLT-4 leukemia; SK-OV-3 ovarian; A549 NSCLC.
Holding throughout (test): growth of human tumour cells (NCI), 48 h

As to `COCCn1c2c([n+](Cc3cnccn3)c1C)C(=O)c1ccccc1C2=O`, the GI50 is 844 nM in the test with UO-31 renal; 126 nM in the test with MALME-3M melanoma; 20.9 nM in the test with HOP-92 NSCLC; 20.7 nM in the test on CCRF-CEM leukemia; less than 10 nM in the test on HL-60(TB) leukemia; less than 10 nM with PC-3 prostate. The GI50 in the test with COLO 205 colon is 23.5 nM; in the test on MOLT-4 leukemia, less than 10 nM; with SK-OV-3 ovarian, 58.8 nM; with A549 NSCLC, 16.6 nM. Further, the TGI is greater than 78500 nM in the test on UO-31 renal; 316 nM with MALME-3M melanoma; 54.9 nM in the test with HOP-92 NSCLC; 345 nM in the test on CCRF-CEM leukemia; less than 10 nM in the test on HL-60(TB) leukemia; 35.9 nM with PC-3 prostate. In addition, the TGI with COLO 205 colon was determined as 62.6 nM; with MOLT-4 leukemia, 34 nM; in the test with SK-OV-3 ovarian, 573 nM; in the test with A549 NSCLC, 43.4 nM.
Consider `Nc1nc(N)c2c(n1)CCC(S(=O)(=O)c1ccc3ccccc3c1)C2` (configuration not stated), for which the TGI was greater than 75300 nM in the test with UO-31 renal; 42700 nM in the test on MALME-3M melanoma; greater than 72200 nM with HOP-92 NSCLC; greater than 100000 nM with CCRF-CEM leukemia; 23600 nM in the test on HL-60(TB) leukemia; greater than 100000 nM in the test with PC-3 prostate. For the same compound, the TGI is 34500 nM with COLO 205 colon, 27200 nM with MOLT-4 leukemia, greater than 100000 nM in the test on SK-OV-3 ovarian and greater than 100000 nM in the test with A549 NSCLC.
Take `CC[C@@]1(O)C(=O)OCc2c1cc1n(c2=O)Cc2c-1nc1cc(F)c(C)c3c1c2[C@@H](NC(=O)CO)CC3`: the GI50 is 19 nM with UO-31 renal; 30.4 nM with MALME-3M melanoma; less than 12.5 nM in the test on HOP-92 NSCLC; less than 10 nM in the test on CCRF-CEM leukemia; less than 10 nM in the test with HL-60(TB) leukemia; 98.5 nM in the test with PC-3 prostate. Further, the GI50 in the test on COLO 205 colon is 127 nM; with MOLT-4 leukemia, less than 10 nM; in the test on SK-OV-3 ovarian, 17.3 nM; in the test on A549 NSCLC, 50.3 nM. The TGI in the test on UO-31 renal is 485 nM; in the test on MALME-3M melanoma, 1080 nM; in the test on HOP-92 NSCLC it was 355 nM; in the test with CCRF-CEM leukemia, greater than 100000 nM; in the test on HL-60(TB) leukemia it was 781 nM; in the test with PC-3 prostate, greater than 100000 nM. Besides, the TGI was 4160 nM in the test on COLO 205 colon, greater than 100000 nM in the test with MOLT-4 leukemia, 4960 nM with SK-OV-3 ovarian and 7510 nM in the test on A549 NSCLC.
For the compound `c1ccc(CC(Nc2cccnc2)c2ccccc2)cc1` (configuration not stated), the TGI came out at 45000 nM in the test on UO-31 renal; 72400 nM with MALME-3M melanoma; 35900 nM in the test with HOP-92 NSCLC; 46200 nM in the test on CCRF-CEM leukemia; 50100 nM with HL-60(TB) leukemia; 76900 nM in the test with PC-3 prostate. The TGI with COLO 205 colon is 37000 nM; with MOLT-4 leukemia, 47700 nM; in the test on SK-OV-3 ovarian, greater than 100000 nM; with A549 NSCLC it was greater than 100000 nM.
`COc1c(B(O)O)cccc1-c1nc2c(F)cc3n[nH]c(C)c3c2c2c1CCCC2`: the GI50 was 225 nM with UO-31 renal; 2500 nM with MALME-3M melanoma; 11.7 nM in the test with HOP-92 NSCLC; 373 nM in the test with CCRF-CEM leukemia; 500 nM in the test on HL-60(TB) leukemia; 1460 nM in the test with PC-3 prostate. Further, the GI50 in the test with COLO 205 colon is 1510 nM; in the test on MOLT-4 leukemia it was 272 nM; in the test on SK-OV-3 ovarian, 666 nM; in the test with A549 NSCLC, 1130 nM. For the same compound, the TGI is 3070 nM in the test on UO-31 renal; 7730 nM in the test with MALME-3M melanoma; 2570 nM in the test with HOP-92 NSCLC; greater than 50000 nM in the test with CCRF-CEM leukemia; greater than 12900 nM in the test with HL-60(TB) leukemia; greater than 50000 nM with PC-3 prostate. Further, the TGI was 5260 nM with COLO 205 colon, greater than 50000 nM in the test with MOLT-4 leukemia, 4710 nM in the test on SK-OV-3 ovarian and greater than 50000 nM with A549 NSCLC.
On to `NC1(C(=O)N[C@@H](CCO)c2ccc(Cl)cc2)CCN(c2ncnc3[nH]ccc23)CC1`, for which the GI50 in the test with UO-31 renal was 1170 nM and 5530 nM; in the test with MALME-3M melanoma, 977 nM and 2380 nM; in the test with HOP-92 NSCLC, 167 nM and 144 nM; in the test with CCRF-CEM leukemia it was 499 nM and 1180 nM; in the test with HL-60(TB) leukemia, > 4630 nM and 24200 nM; in the test with PC-3 prostate, 860 nM and 841 nM. Besides, the GI50 is 1900 nM and 10900 nM in the test on COLO 205 colon; 505 nM and 644 nM with MOLT-4 leukemia; 306 nM and 842 nM with SK-OV-3 ovarian; > 3150 nM and 12000 nM in the test on A549 NSCLC. Besides, the TGI in the test with UO-31 renal was > 5240 nM and 72100 nM; in the test on MALME-3M melanoma, > 3540 nM and 18700 nM; in the test with HOP-92 NSCLC, 1540 nM and 1530 nM; in the test on CCRF-CEM leukemia it was greater than 58400 nM; in the test on HL-60(TB) leukemia, greater than 67800 nM; in the test with PC-3 prostate, greater than 100000 nM. The TGI in the test with COLO 205 colon is greater than 83700 nM; in the test with MOLT-4 leukemia it was > 10000 nM and 21500 nM; with SK-OV-3 ovarian, > 3090 nM and 38500 nM; with A549 NSCLC it was greater than 92100 nM.
Take `O=C(O)c1ccc(/C=N/N=C2c3ccccc3-c3ccccc32)cc1`: the TGI with UO-31 renal, in the test on MALME-3M melanoma, in the test on HOP-92 NSCLC, with CCRF-CEM leukemia, with HL-60(TB) leukemia and in the test on PC-3 prostate was greater than 100000 nM each time. Also, the TGI with COLO 205 colon, in the test on MOLT-4 leukemia, in the test with SK-OV-3 ovarian and in the test with A549 NSCLC was greater than 100000 nM each time.
For `CC#CC#C/C(=C/C=CC(=O)OC)SC`, the TGI in the test with MALME-3M melanoma, in the test on HOP-92 NSCLC, in the test with HL-60(TB) leukemia, in the test on PC-3 prostate, with COLO 205 colon and in the test on MOLT-4 leukemia was greater than 100000 nM in each case. In addition, the TGI in the test on SK-OV-3 ovarian and with A549 NSCLC was greater than 100000 nM in each case.
Regarding `COc1cc(C)[nH]c(=O)c1CNC(=O)c1c(C)n([C@H](C)C2CCN(CC(F)(F)F)CC2)c2ccccc12`, the GI50 in the test on UO-31 renal was 28200 nM; in the test with MALME-3M melanoma it was 87800 nM; in the test on HOP-92 NSCLC it was 78500 nM; in the test on CCRF-CEM leukemia, 50400 nM; with HL-60(TB) leukemia, 28500 nM; with PC-3 prostate, 47400 nM. Also, the GI50 was 35900 nM in the test on MOLT-4 leukemia, 51800 nM in the test with SK-OV-3 ovarian and 87400 nM with A549 NSCLC. The TGI in the test on UO-31 renal is greater than 100000 nM; with MALME-3M melanoma, greater than 100000 nM; in the test with HOP-92 NSCLC, greater than 100000 nM; in the test on CCRF-CEM leukemia, greater than 100000 nM; in the test with HL-60(TB) leukemia, 82900 nM; with PC-3 prostate it was greater than 100000 nM. In addition, the TGI in the test on MOLT-4 leukemia, with SK-OV-3 ovarian and with A549 NSCLC was greater than 100000 nM in each case.
For the compound `CC1[C@@H]2CC=C3[C@H]4CCC5Cc6nc7c(nc6C[C@@]5(C)C4CC(=O)[C@]32CO[C@]12OC(C)(C)CC2O)CC1CC[C@@H]2C3=C[C@H]4O[C@@]5(O[C@@](C)(CO)C[C@@H]5O)C(C)[C@@]4(O)[C@]3(C)[C@@H](O)CC2[C@]1(C)C7` (some centres not stated), the GI50 was 8.07 nM and 5.77 nM in the test on MALME-3M melanoma; 0.668 nM and 0.454 nM with HOP-92 NSCLC; 0.309 nM and 0.365 nM with CCRF-CEM leukemia; 0.355 nM and 0.365 nM in the test with HL-60(TB) leukemia; 0.287 nM in the test with PC-3 prostate; 2.17 nM and 8.57 nM in the test with COLO 205 colon. Besides, the GI50 in the test on MOLT-4 leukemia was 0.203 nM and 0.365 nM; in the test on SK-OV-3 ovarian, 1.38 nM and 2.34 nM; with A549 NSCLC, 0.51 nM and 1.33 nM. For the same compound, the TGI with MALME-3M melanoma is 145 nM and 64.8 nM; in the test on CCRF-CEM leukemia it was 11.4 nM and 4.53 nM; in the test with PC-3 prostate it was 27.4 nM; with COLO 205 colon it was 7.21 nM and 30.1 nM; in the test on MOLT-4 leukemia, 1.56 nM and 1.57 nM; with SK-OV-3 ovarian, 23.9 nM and 73 nM. In the test on A549 NSCLC, the TGI was 164 nM and 470 nM.
For the compound `CC(=O)Nc1cc2c3c(cccc3c1)-c1ccccc1-2`, the GI50 with UO-31 renal is 356 nM; in the test with HOP-92 NSCLC, 17800 nM; in the test on CCRF-CEM leukemia it was 992 nM; with HL-60(TB) leukemia, 250 nM; with PC-3 prostate, 14800 nM; in the test on COLO 205 colon it was greater than 100000 nM. Further, the GI50 was 5720 nM in the test on MOLT-4 leukemia, 26500 nM in the test with SK-OV-3 ovarian and 3720 nM in the test with A549 NSCLC. Also, the TGI in the test on UO-31 renal is 15300 nM; in the test with HOP-92 NSCLC it was 44800 nM; in the test with CCRF-CEM leukemia it was greater than 100000 nM; in the test with HL-60(TB) leukemia, greater than 100000 nM; in the test on PC-3 prostate, greater than 100000 nM; with COLO 205 colon, greater than 100000 nM. In addition, the TGI in the test on MOLT-4 leukemia is greater than 100000 nM; with SK-OV-3 ovarian, 84300 nM; with A549 NSCLC it was greater than 100000 nM.
In the case of `NC(=O)c1csc(-c2ccc(CO)o2)n1`, the TGI in the test with UO-31 renal, with MALME-3M melanoma, in the test on HOP-92 NSCLC, with HL-60(TB) leukemia, with PC-3 prostate and in the test with COLO 205 colon was greater than 100000 nM throughout. Besides, the TGI in the test with MOLT-4 leukemia, in the test on SK-OV-3 ovarian and with A549 NSCLC was greater than 100000 nM each time.
As to `Cc1cc(-c2cc(OC(=O)c3ccccc3)ccc2Cl)cc2nnc(Nc3ccc(OCCN4CCCC4)cc3)nc12`, the GI50 was 1190 nM in the test on UO-31 renal; 1450 nM with MALME-3M melanoma; 303 nM in the test with HOP-92 NSCLC; 2470 nM with HL-60(TB) leukemia; 1160 nM in the test on PC-3 prostate; 1680 nM with COLO 205 colon. Moreover, the GI50 is 2010 nM in the test with MOLT-4 leukemia, 1580 nM with SK-OV-3 ovarian and 1720 nM with A549 NSCLC. The TGI with UO-31 renal came out at 2440 nM; in the test on MALME-3M melanoma, 2930 nM; in the test on HOP-92 NSCLC, 1690 nM; in the test with HL-60(TB) leukemia it was 4690 nM; with PC-3 prostate, 2470 nM; with COLO 205 colon, 3600 nM. In addition, the TGI in the test on MOLT-4 leukemia was determined as 4740 nM; in the test with SK-OV-3 ovarian, 3090 nM; with A549 NSCLC it was 3290 nM.
